From US20180179210A1, “Inhibitors of the TEC Kinase Enzyme Family” (Pharmascience Inc., priority 2015, published 2018)

Key:
[1] = system: Splenocytes; assay: Splenic cell proliferation assay (anti-IgM stimulated); assay type: cell-based; conditions: Splenocyte; CD1 mouse splenocytes, 1 h pre-treatment, 2.5 ug/ml anti-IgM F(ab')2 for 72 h, Cell Titer-Glo; read-out: EC50 (inhibition of splenic cell proliferation)
Protocol: Proliferation of splenocytes in response to anti-IgM can be blocked by inhibition of Btk.
Splenocytes were obtained from 6 week old male CD1 mice (Charles River Laboratories Inc.). Mouse spleens were manually disrupted in PBS and filtered using a 70 um cell strainer followed by ammonium chloride red blood cell lysis. Cells were washed, resuspended in Splenocyte Medium (HyClone RPMI supplemented with 10% heat-inactivated FBS, 0.5× non-essential amino acids, 10 mM HEPES, 50 uM beta mercaptoethanol) and incubated at 37° C., 5% CO2 for 2 h to remove adherent cells. Suspension cells were seeded in 96 well plates at 50,000 cells per well and incubated at 37° C., 5% CO2 for 1 h. Splenocytes were pre-treated in triplicate with 10,000 nM curves of Formula 1 compounds for 1 h, followed by stimulation of cell proliferation with 2.5 ug/ml anti-IgM F(ab′)2 (Jackson ImmunoResearch) for 72 h. Cell proliferation was measured by Cell Titer-Glo Luminescent Assay (Promega). EC50 values (50% proliferation in the presence of compound as compared to vehicle treated controls) were calculated from dose response compound curves using GraphPad Prism Software EC50 values are reported in Table 3: […]

[2] = system: TMD-8 human activated B cell diffuse large B cell lymphoma cells; assay: TMD-8 survival assay; assay type: cell-based; conditions: TMD8, TMD-8 cells, 72 h treatment, Cell Titer-Glo
Protocol: BTK inhibitors affect the survival of B-cell lymphomas. TMD-8 human activated B cell diffuse large B cell lymphoma cells were seeded in 96-well plates at a density of 20,000 cells/well in HyClone RPMI supplemented with 10% FBS (Fisher)/1% Penicillin/Streptomycin (HyClone) and incubated at 37° C., 5% CO2. Cells were treated in triplicate with 1,000 nM or 100 nM curves of compounds for 72 h. Cell survival was measured by Cell Titer-Glo Luminescent Assay (Promega). EC50 values (50% proliferation in the presence of compound as compared to vehicle treated controls) were calculated from dose response compound curves using GraphPad Prism Software.

[3] = target: T1, human BTK kinase (hBTK) (Homo sapiens, UniProt Q06187); assay: BTK kinase inhibition assay (Kinase Profiler radiometric protein kinase assay, Eurofins); assay type: biochemical; conditions: radiometric [γ-33P-ATP] assay, 40 minutes at room temperature, 250 μM substrate
T1 construct: purchased Eurofins Pharma Discovery Services UK Limited (contract assay, Kinase Profiler)
Protocol: In vitro potency of selected compound was defined against human BTK kinase (hBTK) using Kinase Profiler radiometric protein kinase assays performed at Eurofins Pharma Discovery Services UK Limited.
hBTK kinase is diluted in buffer and all compounds were prepared to 50× final assay concentration in 100% DMSO. This working stock of the compound was added to the assay well as the first component in the reaction, followed by the remaining components as detailed in the assay protocol listed above. The reaction was initiated by the addition of the MgATP mix. The kinase reaction was performed at room temperature for 40 minutes in presence of 250 μM substrate, 10 mM MgAcetate, [γ-33P-ATP] (specific activity approx. 500 cpm/pmol, concentration as required) and variable test article concentrations. The ATP concentrations in the assays were with 15 μM of the apparent. The reaction was stopped by the addition of 3% phosphoric acid solution. 10 μL of the reaction is then spotted onto a P30 filtermat and washed three times for 5 minutes in 75 mM phosphoric acid and once in methanol prior to drying and scintillation counting. In addition positive control wells contain all components of the reaction, except the compound of interest; however, DMSO (at a final concentration of 2%) were included in these wells to control for solvent effects as well as blank wells contain all components of the reaction, with a reference inhibitor replacing the compound of interest. This abolishes kinase activity and establishes the base-line (0% kinase activity remaining).

T1 sequence (Q06187 whole entry): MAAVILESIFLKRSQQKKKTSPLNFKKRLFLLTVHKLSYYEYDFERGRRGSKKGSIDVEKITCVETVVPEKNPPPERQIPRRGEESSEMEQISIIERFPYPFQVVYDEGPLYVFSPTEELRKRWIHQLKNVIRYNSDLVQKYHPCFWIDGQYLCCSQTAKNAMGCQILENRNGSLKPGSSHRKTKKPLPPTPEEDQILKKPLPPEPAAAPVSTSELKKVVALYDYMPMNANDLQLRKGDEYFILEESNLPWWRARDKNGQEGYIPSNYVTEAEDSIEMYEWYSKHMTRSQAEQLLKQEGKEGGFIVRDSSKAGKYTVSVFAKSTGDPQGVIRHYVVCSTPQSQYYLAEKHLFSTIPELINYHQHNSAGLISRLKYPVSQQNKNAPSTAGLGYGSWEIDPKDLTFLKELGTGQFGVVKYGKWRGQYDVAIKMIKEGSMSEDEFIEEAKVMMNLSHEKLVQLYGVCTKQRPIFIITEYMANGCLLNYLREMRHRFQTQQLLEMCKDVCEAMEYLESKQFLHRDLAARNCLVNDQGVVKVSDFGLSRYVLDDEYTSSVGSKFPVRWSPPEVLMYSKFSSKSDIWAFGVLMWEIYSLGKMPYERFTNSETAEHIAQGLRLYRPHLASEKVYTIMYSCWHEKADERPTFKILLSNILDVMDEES

| SMILES | IC50 [3] | EC50 [1] | EC50 [2] |
| --- | --- | --- | --- |
| Cc1ncc(COc2cc(F)cc(Oc3ccc(-c4nn(C[C@H]5CCCN5C#N)c5ncnc(N)c45)cc3)c2)cn1 [Compound 1] | 76 nM | 12.2 nM | 34.7 nM |
| Cc1ncc(COc2cc(F)cc(Oc3ccc(-c4nn(C[C@H]5CCCN5C(=O)C5=CCCC5)c5ncnc(N)c45)cc3)c2)cn1 [Compound 2] | 119 nM | > 100 nM | > 100 nM |
| C/C=C/C(=O)N1CCC[C@@H]1Cn1nc(-c2ccc(Oc3cc(F)cc(OCc4cnc(C)nc4)c3)cc2)c2c(N)ncnc21 [Compound 3] | 129 nM | 12.8 nM | 45.3 nM |
| C=C(C)C(=O)N1CCC[C@@H]1Cn1nc(-c2ccc(Oc3cc(F)cc(OCc4cnc(C)nc4)c3)cc2)c2c(N)ncnc21 [Compound 4] | 125 nM | > 100 nM | > 100 nM |
| CC#CC(=O)N1CCC[C@@H]1Cn1nc(-c2ccc(Oc3cc(F)cc(OCc4cnc(C)nc4)c3)cc2)c2c(N)ncnc21 [Compound 5] | 126 nM | 7.8 nM | 48.8 nM |
| C=C(F)C(=O)N1CCC[C@@H]1Cn1nc(-c2ccc(Oc3cc(F)cc(OCc4cnc(C)nc4)c3)cc2)c2c(N)ncnc21 [Compound 6] | 55 nM | 11.5 nM | 36.1 nM |
| Cc1ncc(COc2cc(F)cc(Oc3ccc(-c4nn(C[C@H]5CCCN5C(=O)/C=C/CN(C)C)c5ncnc(N)c45)cc3)c2)cn1 [Compound 9] | 40 nM | 6.4 nM | 18.7 nM |
| C#CC(=O)N1CCC[C@@H]1Cn1nc(-c2ccc(Oc3cc(F)cc(OCc4cnc(C)nc4)c3)cc2)c2c(N)ncnc21 [Compound 13] | 35 nM | 48.7 nM | 79.3 nM |
| C=CC(=O)N1CCC[C@@H]1Cn1nc(-c2ccc(Oc3cc(F)cc(OCc4cnc(C)nc4)c3)cc2)c2c(N)ncnc21 [Compound 14] | 25 nM | 2.5 nM | 13.8 nM |
| Cc1ncc(COc2cc(F)cc(Oc3ccc(-c4nn(C[C@H]5CCCN5C(=O)C5=CCC5)c5ncnc(N)c45)cc3)c2)cn1 [Compound 15] | 53 nM | 8.7 nM | 56.1 nM |
| CC#CC(=O)N1CC(Cn2nc(-c3ccc(Oc4cc(F)cc(OCc5cnc(C)nc5)c4)cc3)c3c(N)ncnc32)C1 [Compound 24] | 26 nM | 10.8 nM | 20.6 nM |
| CC#CC(=O)N1CCC(n2nc(-c3ccc(Oc4cc(F)cc(OCc5cnc(C)nc5)c4)cc3)c3c(N)ncnc32)CC1 [Compound 26] | 24 nM | 4.6 nM | 18.1 nM |
| Cc1ncc(COc2cc(F)cc(Oc3ccc(-c4nn(C5CCN(C#N)CC5)c5ncnc(N)c45)cc3)c2)cn1 [Compound 33] | – | 47.3 nM | > 100 nM |
| C=CC(=O)N1CC2(CC(n3nc(-c4ccc(Oc5cc(F)cc(OCc6cnc(C)nc6)c5)cc4)c4c(N)ncnc43)C2)C1 [Compound 34] | – | 1.5 nM | – |
| C=C(F)C(=O)N[C@H]1C[C@@H](n2nc(-c3ccc(Oc4cc(F)cc(OCc5cnc(C)nc5)c4)cc3)c3c(N)ncnc32)C1 [Compound 35] | – | 1 nM | – |

More lines, in order of falling IC50 [3], values ahead:

| IC50 [3] | SMILES | EC50 [1] | EC50 [2] |
| --- | --- | --- | --- |
| 19 nM | CC#CC(=O)N1CC[C@@H](n2nc(-c3ccc(Oc4cc(F)cc(OCc5cnc(C)nc5)c4)cc3)c3c(N)ncnc32)C1 [Compound 17] | 6.9 nM | 14.5 nM |
| 17 nM | C=CC(=O)N1CCC(n2nc(-c3ccc(Oc4cc(F)cc(OCc5cnc(C)nc5)c4)cc3)c3c(N)ncnc32)CC1 [Compound 25] | 4.3 nM | 19.8 nM |
| 16 nM | C=C(C)C(=O)N1CCC[C@@H](n2nc(-c3ccc(Oc4cc(F)cc(OCc5cnc(C)nc5)c4)cc3)c3c(N)ncnc32)C1 [Compound 7] | 48.7 nM | > 100 nM |
| 14 nM | C=C(F)C(=O)N1CC[C@@H](n2nc(-c3ccc(Oc4cc(F)cc(OCc5cnc(C)nc5)c4)cc3)c3c(N)ncnc32)C1 [Compound 18] | 5.8 nM | 14.4 nM |
| 13 nM | C=CS(=O)(=O)N1CCC[C@@H](n2nc(-c3ccc(Oc4cc(F)cc(OCc5cnc(C)nc5)c4)cc3)c3c(N)ncnc32)C1 [Compound 21] | 32.9 nM | 64.5 nM |
| 13 nM | CC#CC(=O)N[C@H]1C[C@@H](n2nc(-c3ccc(Oc4cc(F)cc(OCc5cnc(C)nc5)c4)cc3)c3c(N)ncnc32)C1 [Compound 28] | 1.1 nM | 8.4 nM |
| 11 nM | Cc1ncc(COc2cc(F)cc(Oc3ccc(-c4nn([C@@H]5CCCN(C#N)C5)c5ncnc(N)c45)cc3)c2)cn1 [Compound 8] | 4.6 nM | 13.5 nM |
| 10 nM | CC#CC(=O)N1CCC[C@@H](n2nc(-c3ccc(Oc4cc(F)cc(OCc5cnc(C)nc5)c4)cc3)c3c(N)ncnc32)C1 [Compound 11] | 1.5 nM | 13.1 nM |
| 10 nM | C=CC(=O)N(C)[C@H]1C[C@@H](n2nc(-c3ccc(Oc4cc(F)cc(OCc5cnc(C)nc5)c4)cc3)c3c(N)ncnc32)C1 [Compound 31] | 1.4 nM | 8.9 nM |
| 9 nM | C=CC(=O)N1CC(Cn2nc(-c3ccc(Oc4cc(F)cc(OCc5cnc(C)nc5)c4)cc3)c3c(N)ncnc32)C1 [Compound 23] | 4.9 nM | 13.9 nM |
| 9 nM | CC#CC(=O)N[C@H]1CC[C@@H](n2nc(-c3ccc(Oc4cc(F)cc(OCc5cnc(C)nc5)c4)cc3)c3c(N)ncnc32)CC1 [Compound 30] | 1 nM | 5.1 nM |
| 8 nM | C#CC(=O)N1CCC[C@@H](n2nc(-c3ccc(Oc4cc(F)cc(OCc5cnc(C)nc5)c4)cc3)c3c(N)ncnc32)C1 [Compound 10] | 9.8 nM | 75.5 nM |
| 8 nM | C=CC(=O)N[C@H]1CC[C@@H](n2nc(-c3ccc(Oc4cc(F)cc(OCc5cnc(C)nc5)c4)cc3)c3c(N)ncnc32)CC1 [Compound 29] | 1 nM | 6.6 nM |
| 8 nM | CC#CC(=O)N(C)[C@H]1C[C@@H](n2nc(-c3ccc(Oc4cc(F)cc(OCc5cnc(C)nc5)c4)cc3)c3c(N)ncnc32)C1 [Compound 32] | 1.5 nM | 8.5 nM |
| 7 nM | Cc1ncc(COc2cc(F)cc(Oc3ccc(-c4nn([C@@H]5CCCN(C(=O)/C=C/CN(C)C)C5)c5ncnc(N)c45)cc3)c2)cn1 [Compound 16] | 4.1 nM | 12.1 nM |
| 7 nM | C=CS(=O)(=O)N1CC[C@@H](n2nc(-c3ccc(Oc4cc(F)cc(OCc5cnc(C)nc5)c4)cc3)c3c(N)ncnc32)C1 [Compound 19] | 13.4 nM | 53.3 nM |
| 6 nM | C=CC(=O)N1CCC[C@@H](n2nc(-c3ccc(Oc4cc(F)cc(OCc5cnc(C)nc5)c4)cc3)c3c(N)ncnc32)C1 [Compound 12] | 3.1 nM | 16.5 nM |
| 6 nM | C=C(F)C(=O)N1CCC[C@@H](n2nc(-c3ccc(Oc4cc(F)cc(OCc5cnc(C)nc5)c4)cc3)c3c(N)ncnc32)C1 [Compound 20] | 2 nM | 8.6 nM |
| 6 nM | C=CC(=O)N1CC[C@@H](n2nc(-c3ccc(Oc4cc(F)cc(OCc5cnc(C)nc5)c4)cc3)c3c(N)ncnc32)C1 [Compound 22] | 2.7 nM | 13.4 nM |
